The values that follow come from patent US7763287B2, “Extract of Cercis chinensis having anti-oxidant activity and anti-aging activity, and cosmetical composition containing the extract for anti-oxidation, skin-aging protection and wrinkle improvement” (Hankook Pharm. Co., Inc., priority 2002, dated 2010).

The subject of one test is HEK-N/F cells. As to the kind of experiment: Protection of cells from oxidative damage induced by t-butylhydroperoxide. The class given is cell-based, human. As to conditions: 1.5 mM t-butylhydroperoxide 3 hours; for TBARS (pmol/mg protein): compound 50.0 µg/ml. Here is the method:
t-butylhydroperoxide is metabolized into a free radical intermediate as it comes in a cell, so that it causes lipid peroxidation, resulting in cell damage. This phenomenon is similar to that caused by oxidataive stress accumulated in cells and tissues. […] HEK-N/F, an epidermal cell line of a newborn baby, was treated with 1.5 mM of t-butylhydroxyperoxide for 3 hours.

In a further test the test system is rat brain homogenates. As to the kind of experiment: Lipid peroxidation inhibitory activity (Fe2+/ascorbic acid, TBA method). As to conditions: Table 4.
The nature of test [1]: Nitric oxide scavenging activity. More on the design: Nitric oxide scavenging activity (%): concentration or dose not given beside the values. The class given is biochemical.
A short description of test [2]: Hydroxyl radical scavenging activity (deoxyribose/TBA, method of Halliwell). The settings on record: for Hydroxyl radical scavenging activity (%): 10 μg of sample, total volume 1 ml. The format is biochemical. The protocol: Hydroxyl radical (HO.) is generated by the reaction of a metal ion or a superoxide radical. Owing to its strong reactivity, hydroxyl radical causes oxidative damages to DNA, protein and lipid in vivo. Nitric oxide (NO.) is reacted with a superoxide radical to generate a peroxy nitrite (ONOO—), also having strong reactivity. […] Particularly, each compound was mixed with 10 μg of a sample dissolved in DMSO, phosphate buffer (20 mM, pH 7.4) 5.6 mM deoxyribose, 0.1 mM FeCl3, 1 mM H2O2 and 0.1 mM ascorbic acid, making total volume 1 ml, which was then reacted at 37° C. for 60 minutes. 250 μl of 20% TCA and 250 μl of 1% TBA solution (dissolved in 50 mM NaOH) were added to the reaction solution, followed by thermal reaction at 95° C. for 5 minutes. After completing the reaction, OD532 was measured. Hydroxyl radical scavenging activity was calculated by the below
<Mathematical Formula 3>. BHA and α-tocopherol were used for a positive control. Hydroxyl Radical Scavenging Activity (%)=(Acontrol−Asample)/(Acontrol−Ablank)×100 <Mathematical Formula 3>
Acontrol: Optical density of control group well (sample was not added),
Asample: Optical density of experimental group well (sample was added),
Ablank: Optical density of well not added with sample, TCA and TBA

The nature of test [3]: Superoxide radical scavenging activity (xanthine/xanthine oxidase, NBT). The format is biochemical. As to conditions: Table 6. Here is the method:
Superoxide radical (O^2−) itself has a little reactivity, but is easily changed into H2O2 that generates hydroxyl radical having strong reactivity or is reacted with nitric oxide (NO.) to generate peroxy nitrite (ONOO^−) having strong reactivity, too. Thus, it might be a reason for oxidation of SH-group, nitration of protein tyrosine, lipid peroxidation and DNA damage. […] Basically, measurement of superoxide radical scavenging activity was performed by investigating the activity of superoxide dismutase (SOD), an enzyme scavenging superoxide by dismutation of the same. In the present invention, an activity of a sample to inhibit superoxide production by the enzyme reaction of xanthine/xanthine oxidase and its another activity to inhibit reaction (NBT+20^2−→NBTH2+2O2) generating formazan by reduction of nitro blue tetrazolium (referred as ‘NBT’ hereinafter) were measured. Particularly, wells of a 96-well plate were supplemented with 50 μl of 4 mM xanthine (Sigma), 50 μl of […] NBT (Sigma), 50 μl of 50 mM phosphate buffer (pH 7.8, 1 mM EDTA) and 10 μl of each sample, into which 40 μl of xanthine oxidase was added to induce a reaction. After the reaction was completed, each reaction solution was collected as scheduled, and OD550 was measured with an ELISA reader. […] Superoxide Radical Scavenging Activity (%)=(Acontrol−Asample)/(Acontrol−Ablank)×100 <Mathematical Formula 4> […]

Test [4] can be described thus: DPPH radical scavenging activity. The format is biochemical. As to conditions: for DPPH radical scavenging activity IC50: Table 3. Here is the method: In order to extract an effective ingredient having an anti-oxidant activity from Cercis chinensis, an experiment was performed following the procedure represented in a schematic diagram of FIG. 1. Particularly, 1 kg of leaves and stems of Cercis chinensis, dried in shadow, were grinded to powder using a pulverizer, which was extracted by ethanol (EtOH) at room temperature twice at intervals of two weeks. For the extraction, ethanol solutions were prepared by adding ethanol gradually, 10% at a time, from 0% to 100%. The prepared ethanol solutions were used for the extraction. […] But, it looses absorbance when being scavenged. Based on that point, an anti-oxidant activity can be measured using DPPH. […] Then, each solution was distributed into a 96 well plate by 10 μl each, into which 190 μl of DPPH(Sigma, St. Louis, Mo, USA) solution whose ethanol concentration was 2×10^−4 M/ml was added. The plate was just left at room temperature for 30 minutes. Finally, OD517 was measured at 517 nm. For a control, DMSO was added instead of the sample, and changes of optical density were investigated. […] DDPH Radical Scavenging Activity (%)=(Acontrol−Asample)/(Acontrol)×100 <Mathematica Formula 1>
Acontrol: Optical density of control group (sample was not added),
Asample: Optical density of experimental group (sample was added).
In order to identify a fraction having an anti oxidant activity among hexane Fr, EtOAc Fr and BuOH Fr obtained above, a DPPH radical scavenging activity was measured using each extract of each fraction following the method used above. At this time, vitamin E, known to have high DPPH radical scavenging activity, was used as a comparing group.
At this time, BHA (tert-butyl-4 hydroxyanisole) and α-tocopherol, synthetic anti-oxidant agents, were used as positive controls.
(In general: Loss of DPPH colour is used to gauge radical scavenging.)

For test [5], the system named is back skin of SKH-1 hairless mouse. Nature of the test: Protection of skin tissues from UVB irradiation in hairless mice. The format is in vivo. The protocol: 5-6 week old female hairless mice (SKH-hr 1) were raised for 14 days at 24±2° C. with 50±10% relative humidity and 12 hour day/night cycle. 30-60 minutes before the experiment, a sample was hyperdermically injected on 5 spots of the mice and the backs of the mice were irradiated by UVB. 5 mice per each group were put in a cage (20×15×5 cm) and UVB irradiation was performed using a UV lamp (HP-15M, 280-400 nm, max. 312 nm; Atto Co., Japan) at 15 cm distance by 15 kJ/m^2. After the completion of UV irradiation for 24 hours, back skin was cut and stored at −70° C. until peroxidation was measured.
UVB irradiation causes serious lipid peroxidation in skin tissues, so measurement of the peroxided lipid content might lead to the measurement of skin damages. Particularly, UVB was irradiated on the back skin of SKH-1 hairless mouse. 48 hours later, the back skin tissues were cut to measure lipid peroxidation by thiobarbituric acid (TBA) method. The back skin of the mouse was put in a 10×50 mM K-P buffer solution for homogenation.
Hydrogen peroxidation was also investigated. The frozen back skin section was put in 0.1 M Tris-HCl buffer solution (pH 7.5) containing 1 mg/ml of glucose and 1 mg/ml diaminobenzidine (DAB), which was cultured at 37° C. for 5-6 hours. After being washed with distilled water, the solution was stained with 2% methyl green for 60 minutes. Nucleus stained blue and DAB peroxidase (brown) were observed under a microscope.

The structures appear in SMILES notation.

In the case of `COC(=O)c1cc(O)c(O)c(O)c1` [Chemical Formula 7, methyl gallate], in the test with HEK-N/F cells, the “Cell survival rate (%)” value is 43.0±5.6% and the “TBARS (pmol/mg protein)” value turned out to be 1024.4 ± 91.9 pmol/mg protein. Also, in the test with rat brain homogenates, the “Lipid Peroxidation Inhibitory Activity IC50” value came to 7.05 ± 0.87 µg/mL. The “Nitric oxide scavenging activity (%)” value in test [1] is listed as 32.6 ± 2.8%. Besides, in test [2], the “Hydroxyl radical scavenging activity (in words)” value is recorded as “remarkably higher hydroxyl radical scavenging activities” and the “Hydroxyl radical scavenging activity (%)” value amounted to 43.8%. Moreover, the “Superoxide radical scavenging activity IC50” value in test [3] was determined as 16.5 ± 1.4 µg/mL. In test [4], the “DPPH radical scavenging activity IC50” value worked out at 5.3 ± 0.3 µg/mL.
As to `O=C1O[C@H]([C@@H](O)CO)C([O-])=C1OP(=O)([O-])[O-].O=C1O[C@H]([C@@H](O)CO)C([O-])=C1OP(=O)([O-])[O-].[Mg+2].[Mg+2].[Mg+2]` [MAP, magnesium-L-ascorbyl-2-phosphate, reference compound], the “TBARS (nmol/mg protein)” value in test [5] (treating amount 30 mg/kg + UVB irradiation) was found to be 0.28 ± 0.06 nmol/mg protein; in test [5] (treating amount 50 mg/kg + UVB irradiation), 0.16 ± 0.05 nmol/mg protein.
As for `COc1cc(C2c3c(cc(OC)c(O)c3OC)CC(CO)C2CO[C@@H]2OC[C@@H](O)[C@H](O)[C@H]2O)cc(OC)c1O` (single isomer, unassigned; (-)) [Chemical Formula 19, (−)-lyoniresinol 3a-O-β-D-xylopyranoside], in the test on HEK-N/F cells, the “Cell survival rate (%)” value came out at 13.5 ± 2.0% and the “TBARS (pmol/mg protein)” value came to 5981.1 ± 412.6 pmol/mg protein. The “Lipid Peroxidation Inhibitory Activity IC50” value in the test with rat brain homogenates stood at 37.42 ± 2.06 µg/mL. The “Nitric oxide scavenging activity (%)” value in test [1] amounted to 0.8 ± 0.6%. Besides, in test [2], the “Hydroxyl radical scavenging activity (%)” value worked out at 7.3%. Besides, the “Superoxide radical scavenging activity IC50” value in test [3] is more than 100 µg/mL. Further, in test [4], the “DPPH radical scavenging activity IC50” value was found to be 45.7 ± 4.0 µg/mL.
`Oc1cc(O)c2c(c1)O[C@H](c1ccc(O)c(O)c1)[C@@H](O)C2` [Chemical Formula 16, (+)-catechin]: in the test on HEK-N/F cells, the “Cell survival rate (%)” value is given as 24.5 ± 1.9% and the “TBARS (pmol/mg protein)” value is on record as 1912.4 ± 112.0 pmol/mg protein. Besides, the “Lipid Peroxidation Inhibitory Activity IC50” value with rat brain homogenates worked out at 4.71 ± 0.26 µg/mL. In addition, in test [1], the “Nitric oxide scavenging activity (%)” value is 16.9 ± 1.1% and the “Nitric oxide scavenging activity (in words)” value is reported as “comparatively high nitric oxide scavenging activity”. In addition, in test [2], the “Hydroxyl radical scavenging activity (%)” value is reported as 12.7%. The “Superoxide radical scavenging activity IC50” value in test [3] stood at 16.5 ± 2.0 µg/mL. For the same compound, in test [4], the “DPPH radical scavenging activity (in words)” value is on record as “strong radical scavenging activity” and the “DPPH radical scavenging activity IC50” value stood at 15.6 ± 0.8 µg/mL.
As to `COc1cc(C2c3c(cc(OC)c(O)c3OC)CC(CO)C2CO[C@@H]2O[C@H](CO)[C@@H](O)[C@H](O)[C@H]2O)cc(OC)c1O` (single isomer, unassigned; (+)) [Chemical Formula 20, (+)-lyoniresiol 3a-O-β-D-glucopyranoside], in the test on HEK-N/F cells, the “Cell survival rate (%)” value is recorded as 12.9 ± 2.1% and the “TBARS (pmol/mg protein)” value came out at 7635.7 ± 631.2 pmol/mg protein. Moreover, in the test on rat brain homogenates, the “Lipid Peroxidation Inhibitory Activity IC50” value came to 39.10 ± 3.11 µg/mL. The “Nitric oxide scavenging activity (%)” value in test [1] worked out at 0.8 ± 0.8%. Moreover, in test [2], the “Hydroxyl radical scavenging activity (%)” value is given as 8.1%. Further, the “Superoxide radical scavenging activity IC50” value in test [3] is more than 100 µg/mL. For the same compound, in test [4], the “DPPH radical scavenging activity IC50” value was determined as 42.6 ± 3.1 µg/mL.
As for `CCOC(=O)c1cc(O)c(O)c(O)c1` [Chemical Formula 8, ethyl gallate], in the test on HEK-N/F cells, the “Cell survival rate (%)” value is 43.1±4.1% and the “TBARS (pmol/mg protein)” value is 1115.6 ± 96.2 pmol/mg protein. Besides, in the test on rat brain homogenates, the “Lipid Peroxidation Inhibitory Activity IC50” value is 7.01 ± 0.62 µg/mL. In addition, the “Nitric oxide scavenging activity (%)” value in test [1] amounted to 33.4 ± 2.1%. In addition, in test [2], the “Hydroxyl radical scavenging activity (in words)” value is recorded as “remarkably higher hydroxyl radical scavenging activities” and the “Hydroxyl radical scavenging activity (%)” value came to 44.0%. Also, the “Superoxide radical scavenging activity IC50” value in test [3] came out at 15.8 ± 1.6 µg/mL. For the same compound, the “DPPH radical scavenging activity IC50” value in test [4] was 7.0 ± 1.0 µg/mL.
Consider `CC1OC(Oc2c(-c3cc(O)c(O)c(O)c3)oc3cc(O)cc(O)c3c2=O)C(OC(=O)c2cc(O)c(O)c(O)c2)C(O)C1O` [Chemical Formula 13, myricetin-3-O-(2″-O-galloyl)-α-L-rhamnopyranoside], for which, in the test on HEK-N/F cells, the “Cell survival rate (%)” value came out at 45.1 ± 3.6% and the “TBARS (pmol/mg protein)” value came to 1019.8 ± 154.0 pmol/mg protein. The “Lipid Peroxidation Inhibitory Activity IC50” value with rat brain homogenates is 4.73 ± 0.41 µg/mL. Further, in test [1], the “Nitric oxide scavenging activity (%)” value is 23.0 ± 0.6%. Further, in test [2], the “Hydroxyl radical scavenging activity (in words)” value is given as “remarkably higher hydroxyl radical scavenging activities” and the “Hydroxyl radical scavenging activity (%)” value worked out at 45.4%. In test [3], the “Superoxide radical scavenging activity IC50” value turned out to be 13.2 ± 2.5 µg/mL. Also, the “DPPH radical scavenging activity IC50” value in test [4] came out at 8.6 ± 0.7 µg/mL.
